Assay results from patent publication US20060148732A1, “Inhibition of NF-kappaB by triterpene compositions” (priority 2000, published 2006).

Tests used:
[1] = test system: caspase-3 in Jurkat cells; experiment: Assay for caspase-3 protease; type: cell-based, human; conditions: for start of caspase 3 activation: post treatment
Description: Caspase-3 activity was measured as described earlier (Enari et al., 1995) with some modifications. Briefly, Jurkat cells (1×10^6/ml) were treated with F035, D1 & G1 for different lengths of time. Cytosolic extracts were prepared by repeated freeze thawing in 300 μl of extraction buffer (12.5 mM Tris, pH 7.0, 1 mM DTT, 0.125 mM EDTA, 5% glycerol, 1 μM PMSF, 1 μg/ml leupeptin, 1 μg/ml pepstatin and 1 μg/ml aprotinin). Cell lystates were diluted 1:2 with ICE buffer (50 mM Tris, pH 7.0, 0.5 mM EDTA, 4 mM DTT and 20% glycerol) and incubated with 20 μM of a caspase 3 substrate (acetyl-Asp-Glu-Val-Asp-aminomethylcoumarin) at 37° C. Caspase-3 activity was monitored by the production of fluorescent aminomethylcoumarin, which was measured at excitation 355 nm, emission 460 nm using Fluoroscan II (Labsystems, Helsinki, Finland).
Assay for Caspase-3 Protease. Caspase-3 activity was measured as described earlier (Martin et al, 1995) with some modifications. Briefly, Jurkat cells (1×10^6) were treated with F094, avicin D, or avicin G (2 μg/ml) at 37° C. Cytosolic extracts were prepared by repeated freeze thawing of the cells in 300 μl of an extraction buffer (12.5 mM Tris, pH 7.0, 1 mM DTT, 0.125 mM EDTA, 5% glycerol, 1 μM PMSF, 1 μg/ml leupeptin, 1 μg/ml pepstatin, and 1 μg/ml aprotinin). Cell lysates were diluted 1:2 with an ICE buffer (50 mM Tris, pH 7.0, 0.5 mM EDTA, 4 mM DTT, and 20% glycerol) and incubated with 20 μM of a caspase-3 substrate (acetyl-Asp-Glu-Val-Asp-aminomethylcoumarin) (Calbiochem, La Jolla, Calif.) at 37° C. Caspase-3 activity was monitored by the production of flourescent aminomethylcoumarin that was measured at excitation 355 nm and emission 460 nm, using Fluoroscan II (Labsystems, Helsinki, Finland).

[2] = test system: AKT in Jurkat cells; experiment: Western blot of phosphorylated and total AKT; type: cell-based, human; conditions: 2 μg/ml (F035 printed '2 ml'), 15 hr
Description: The effect of F035 on phosphorylation of AKT was analyzed as follows. Jurkat cells (5×10^6) were serum starved and exposed to F035 for 15 h and 2 h with wortmannin at 37° C. The cells were either induced with cd3XL (cd3 crosslink) or left uninduced for 10 min at 37° C. and lysed in AKT lysis buffer and the proteins were resolved on 8% SDS-PAGE gels and analyzed by western-ECL using phospho-specific AKT (Ser 473; New England Biolabs) and total AKT antibody. An assay of the effect of F035 on p70S6 kinase can be carried out similarly, but using a Phosphoplus p70S6 kinase antibody kit (New England Biolabs) for analysis of p70S6 kinase (Ser 411, thr421/ser424) phosphorylation. […] There was, however, no change in the expression of total AKT.
The expression of total and phosphorylated forms of AKT was determined by western blot analysis. Jurkat cells cultured in medium containing 0.5% FBS were treated with F035 and pure extracts D1 and G1 (2.0 μg/ml) for 15 h at 37° C. The cells were lysed in AKT Iysis buffer (20 mM Tris-HCl, 150 mM NaCI, 1 mM EDTA, 1 mM EGTA, 1% Triton X-100, 2.5 mM sodium pyrophosphate, 1 mM 8-glycerol phosphate, 1 mM Na3VO4, […], 1 mM PMSF pH 7.5). Cellular protein (40 μg) was resolved on 8% SDS-polyacrylamide gel and electrotransferred onto nitrocellulose membrane. Membranes were probed first with phosphospecific AKT (Ser 473) or AKT antibody followed by goat anti rabbit antibody conjugated to horseradish peroxidase. Proteins were detected by chemiluminescence (ECL, Amersham, Arlington Heights, Ill.).

[3] = test system: human tumor cell lines; experiment: Cytotoxicity / anti-tumor activity on panel of tumor cell lines; type: cell-based
Description: Each of the extracts was then screened against a panel of human tumor and non-tumor cells including human ovarian cancer cell lines, T-leukemic cells, human epidermoid cells, human breast cancer cells, human prostate cancer cells, human foreskin fibroblast cells, human endothelial cells, and human renal cancer cells. The cells were first plated in 96-well plates for 18-24 hours at 37° C. The cells were then exposed to varying concentrations of the plant extracts, and incubated for 72 hours at 37° C., and stained with either MTT (3-(4,5-dimethylethiazol-2-yl)-2,5-diphenyl tetrazolium bromide; Sigma Chemical Co.) for 4 hours or crystal violet (Sigma Chemical Co.) for 20 minutes at room temperature. The MTT plates received lysis buffer (20% sodium dodecyl sulfate in 50% DMF) and were incubated for an additional 6 hours before taking an OD reading at 570 nm. The crystal violet plates were washed, dye was extracted for 3-4 hours with Sorenson's buffer (0.1 M sodium citrate (pH 4.2), 50% v/v ethanol), and the plates were read at 570-600 nm (Mujoo et al., 1996). Cytotoxicity of the screened extracts was indicated by comparing the OD readings between the treated media alone and the cells treated with the plant extract. Percent cytotoxicity was calculated by 100-% of control, where % of control =[((OD of cells treated with plant extract (treated sample))/(OD of cells exposed to media alone (untreated sample)))×100].
The following human cancer cell lines were obtained from American Type Tissue Culture Collection (ATCC, Rockville, Md.). SK-OV-3 and OVCAR-3 (ovarian), Jurkat (T-cell leukemia), U-937 (histiocytic lymphoma), MDA-MB-468, MDA-MB-453, MDA-MB-435, SK-BP-3, MCF-7, MDA-MB-231, BT-20 (breast), LNCaP, PC-3, DU145 (prostate), 769-P, 786-O A498 (renal) and PANC-1 (pancreatic). HEY and Dov-13 (ovarian), cell lines were obtained from M. D. Anderson Cancer Center. The following non-transformed human cell lines MCF-10A and 10F (breast epithelium) were obtained from M. D. Anderson Cancer Center. Hs 27 (human foreskin fibroblasts) and L929 (mouse fibroblasts) were obtained from ATCC. […]

Compound: C=C[C@](C)(O)CC/C=C(\C)C(=O)O[C@H]1[C@H](O)[C@@H](O)[C@H](O[C@@](C)(C=C)CC/C=C(\CO)C(=O)O[C@H]2C[C@]3(C(=O)O[C@@H]4O[C@H](CO)[C@@H](O)[C@H](O)[C@H]4O[C@@H]4O[C@@H](C)[C@H](O[C@@H]5O[C@@H](CO)[C@H](O)[C@H]5O)[C@@H](O[C@@H]5O[C@H](CO)[C@@H](O)[C@H](O)[C@H]5O)[C@H]4O)[C@H](O)C[C@]4(C)C(=CC[C@@H]5[C@@]6(C)CC[C@H](O[C@@H]7O[C@H](CO[C@@H]8O[C@H](C)[C@H](O)[C@H](O)[C@H]8O[C@@H]8OC[C@@H](O)[C@H](O)[C@H]8O)[C@@H](O)[C@H](O)[C@H]7NC(C)=O)C(C)(C)[C@@H]6CC[C@]54C)[C@@H]3CC2(C)C)O[C@@H]1C [Fraction G1]
- time at which activation of caspase-3 is detectable ([1]; 2 μg/ml): 2 to 4 h
- start of caspase 3 activation [1]: 4 h
- AKT phosphorylation [2]: inhibited AKT phosphorylation
- total AKT protein [2]: inhibited
- cytotoxicity compared with F035 and D1 ([3]; most of the cells tested (Jurkat, C-2, 769-P, MDA-MB-231, MDA-MB-453)): significantly more cytotoxic than F035 and D1

Compound: C=C[C@](C)(O)CC/C=C(\CO)C(=O)O[C@H]1[C@H](O)[C@@H](O)[C@H](O[C@@](C)(C=C)CC/C=C(\CO)C(=O)O[C@H]2C[C@]3(C(=O)O[C@@H]4O[C@H](CO)[C@@H](O)[C@H](O)[C@H]4O[C@@H]4O[C@@H](C)[C@H](O[C@@H]5O[C@@H](CO)[C@H](O)[C@H]5O)[C@@H](O[C@@H]5O[C@H](CO)[C@@H](O)[C@H](O)[C@H]5O)[C@H]4O)[C@H](O)C[C@]4(C)C(=CC[C@@H]5[C@@]6(C)CC[C@H](O[C@@H]7O[C@H](CO[C@@H]8O[C@H](C)[C@H](O)[C@H](O)[C@H]8O[C@@H]8OC[C@@H](O)[C@H](O)[C@H]8O)[C@@H](O)[C@H](O)[C@H]7NC(C)=O)C(C)(C)[C@@H]6CC[C@]54C)[C@@H]3CC2(C)C)O[C@@H]1C [Fraction D1]
- start of caspase 3 activation [1]: 4 h
- AKT phosphorylation [2]: inhibited AKT phosphorylation
- total AKT protein [2]: inhibited
- IC50 compared with F035 ([3]; 769-P, MDA-MB-453, MDA-MB-231): comparable to F035
- potency compared with F035 ([3]; C-2 (HEY Variant) and Jurkat cells): twice as potent as F035
